Tests used:
Format in all cases: in vivo
[1] = test system: two-spotted mite [Tetranychus urticae (Koch)], eggs; experiment: Two-spotted mite acaricidal test, eggs (2SM-E); settings: percent in dip solution, mortality after 5-7 days, max. 0.05%
From the text: (§1) Acaricidal Evaluation Test
(§2) The two-spotted mite (2SM) [Tetranychus urticae (Koch)] was employed in tests for miticides. The test procedure was as follows:
(§3) Pinto bean plants (Phaseolus sp.), approximately 10 cm tall, were transplanted into sandy loam soil in small cups and thoroughly infested with two-spotted mites of mixed ages and sexes. Twenty-four hours later the infested plants were inverted and dipped for 2-3 seconds in 50-50 acetone-water solutions of the test compound. Treated plants were held in the greenhouse, and 5-7 days later mortality was determined for both adult mites and the nymphs hatching from eggs which were on the plants at the time of treatment. Test concentrations ranged from 0.05% downward. The LC-50 value is expressed below in Table 2 under the headings "2SM-A" (i.e., adults) and "2SM-E" (i.e. eggs) in terms of percent concentration of the test compound in the solution.

[2] = test system: Cabbage Looper [Trichoplusia ni (Hubner)]; experiment: Cabbage looper insecticidal test (CL); settings: second-instar larvae; percent in solution; mortality 3-5 days later; max. 0.1%
Experimental: (§4) The compounds in Table 1 above were tested for insecticidal activity using the following testing procedures. LC50 values, based on the results of these tests and calculated according to dosage-mortality curves, are expressed in Table 2.
Cabbage Looper [Trichoplusia ni (Hubner)]
The test compound was diluted in a 50-50 acetone-water solution. Cotyledons of hyzini squash (Calabacita abobrinha), approximately 1×1.5 inches, were immersed in the test solutions for 2-3 seconds and placed on a wire screen to dry. The dried leaves were placed in petri dishes containing a moistened piece of filter paper and infested with 5 second-instar cabbage looper larvae. The dishes were placed in a high humidity chamber. Mortality of the larvae was recorded 3-5 days later. Test concentrations ranged from 0.1% downward. The LC-50 value is expressed below in Table 2 under the heading "CL" in terms of percent of the test compound in solution.

[3] = test system: Housefly [Musca domestica]; experiment: Housefly insecticidal test (HF); settings: μg of test compound per 25 female flies; mortality after 48 hours; max. test level 100 μg
Experimental: as §4
Housefly [Musca domestica]
The test compound was diluted in acetone and aliquots pipetted onto the bottom of aluminum dishes. To ensure even spreading of the chemical on the bottom of the dishes, 1 ml of acetone containing 0.01% peanut oil was also added to each dish. After all solvents had evaporated, the dishes were placed in circular cardboard cages containing 25 female houseflies, 1-2 days old. The cages were covered on the bottom with cellophane and on the top with tulle netting, and each contained a sugar-water saturated cotton plug for maintenance of the flies. Mortality was recorded after 48 hours. Test levels ranged from 100 μg/25 female houseflies downward. The LC-50 value is expressed below in Table 2 under the heading "HF", in terms of μg of the test compound per 25 female flies.

[4] = test system: Black Bean Aphid [Aphis fabae (Scop.)]; experiment: Black bean aphid insecticidal test (BBA); settings: percent in sprayed solution; mortality after 48 hours; max. 0.05%
Experimental: as §4
Black Bean Aphid [Aphis fabae (Scop.)]
Nasturtium plants (Tropaeolum sp.) approximately 5 cm tall, were transplanted into sandy loam soil in small cups and infested with 25-50 black bean aphids of mixed ages. Twenty-four hours later they were sprayed to the point of runoff with 50-50 acetone-water solutions of the test compound. Treated plants were held in the greenhouse and mortality was recorded after 48 hours. Test concentrations ranged from 0.05% downward. The LC-50 value is expressed below in Table 2 under the heading "BBA" in terms of percent of the test compound in the sprayed solution.

[5] = test system: two-spotted mite [Tetranychus urticae (Koch)], adults; experiment: Two-spotted mite acaricidal test, adults (2SM-A); settings: percent in dip solution, mortality after 5-7 days, max. 0.05%
From the text: as §1, §2, §3

[6] = test system: Tobacco Budworm [Heliothis virescens (Fabricius)], eggs; experiment: Tobacco budworm egg test (TBW-E); settings: 2-day old eggs dipped; percent in acetone solution; max. 0.1%
Experimental: The compounds in Table 1 above were tested for insecticidal activity using the following testing procedures.
Tobacco Budworm [Heliothis virescens (Fabricius)]
Eggs: Paper towel patches of 2-day old eggs of the tobacco budworm were dipped in acetone solutions of the test compound and placed in petri dishes containing a portion of larval rearing medium. […] Test concentrations ranged from 0.1% downward. The LC-50 value is expressed below in Table 2 under the heading "TBW-E" in terms of percent of the test compound in the solution.

[7] = test system: Western Spotted Cucumber Beetle Larvae [Diabrotica undecimpunctata (Mannherheim)]; experiment: Western spotted cucumber beetle larvae soil test (Diab); settings: ppm in soil; max. 25 ppm
Experimental: as §4
Western Spotted Cucumber Beetle Larvae [Diabrotica undecimpunctata (Mannherheim)]
Ten grams of moist potting soil was placed in a plastic cup. The test compound was dissolved in acetone. A 0.05 ml aliquot of the test sample, diluted to the desired concentration, was added to the soil. The cup was capped and the soil was mixed on a vortex mixer for approximately 15 seconds. An indentation was made on the surface of the soil and approximately 50 Diabrotica eggs were added. The eggs were covered with soil and maintained at room temperature (approximately 70° F. or 21° C.). Four days later a section of Romaine lettuce (Latuca sativa) leaf was placed in the treated cups. One week later the cups were examined for live larvae. Test concentrations ranged from 25 ppm downward. The LC-50 value is expressed below in Table 2 under the heading "Diab" in terms of ppm of the test compound in the soil.

CC(C)C(O)(CCc1cccc(Oc2ccccc2)c1)Cc1ccc(Cl)cc1 (centres unmarked) [Compound 1, 1-(4-chlorophenyl)-2-isopropyl-4-(3-phenoxyphenyl)-2-butanol]
LC50 2-SM E [1]: > 0.05% | LC50 CL [2]: 0.015% | LC50 HF [3]: > 100 µg | LC50 BBA [4]: 0.05% | LC50 2-SM A [5]: > 0.05% | LC50 TBW E [6]: > 0.1% | LC50 Diab. [7]: > 25 ppm (soil)

Cc1ccc(CC(O)(CCc2cccc(Oc3ccccc3)c2)C(C)C)cc1 (centres unmarked) [Compound 2]
LC50 2-SM E [1]: > 0.05% | LC50 CL [2]: 0.016% | LC50 HF [3]: > 100 µg | LC50 BBA [4]: 0.05% | LC50 2-SM A [5]: > 0.05% | LC50 TBW E [6]: > 0.1% | LC50 Diab. [7]: > 25 ppm (soil)

OC(CCc1cccc(Oc2ccccc2)c1)(Cc1ccc(Cl)cc1)C1CC1 (centres unmarked) [Compound 3]
LC50 2-SM E [1]: > 0.05% | LC50 CL [2]: 0.025% | LC50 HF [3]: > 100 µg | LC50 BBA [4]: > 0.05% | LC50 2-SM A [5]: > 0.05% | LC50 TBW E [6]: > 0.1% | LC50 Diab. [7]: > 25 ppm (soil)

OC(CCc1cccc(Oc2ccccc2)c1)(Cc1cccc(Cl)c1)C1CC1 (centres unmarked) [Compound 4]
LC50 2-SM E [1]: > 0.05% | LC50 CL [2]: 0.035% | LC50 HF [3]: > 100 µg | LC50 BBA [4]: > 0.05% | LC50 2-SM A [5]: > 0.05% | LC50 TBW E [6]: > 0.1% | LC50 Diab. [7]: > 25 ppm (soil)

CC(C)C(O)(CCc1cccc(Oc2ccccc2)c1)Cc1cccc(Cl)c1 (centres unmarked) [Compound 5]
LC50 2-SM E [1]: > 0.05% | LC50 CL [2]: 0.008% | LC50 HF [3]: 84 µg | LC50 BBA [4]: 0.05% | LC50 2-SM A [5]: > 0.05% | LC50 TBW E [6]: > 0.1% | LC50 Diab. [7]: > 25 ppm (soil)

Reference: patent US5276205A, “Insecticides” (ICI Americas Inc., priority 1989, dated 1994)
